From publication PMC5891627, “Binding Specificity of Two PBPs in the Yellow Peach Moth Conogethes punctiferalis (Guenée)” (Frontiers in Physiology, 2018)
Where two headings read alike, the source gives them in different places.

How the values were obtained:
CpunPBP5 = CpunPBP5 (Conogethes punctiferalis, UniProt A0A0M4FIS7); assay: Fluorescence displacement (competitive, 1-NPN) binding assay; details: for binding affinity to CpunPBP5 (in words): ranking among the 24 tested ligands
Protocol: (§1) The fluorescence intensity was recorded on a FluoroMax-4 spectrophotometer (Horiba Scientific, USA) at room temperature using a 1 cm light path fluorimeter quartz cuvette. The fluorescent probe N-phenyl-1-naphthylamine (1-NPN) and all the tested chemicals were dissolved in HPLC purity methanol. The final concentration was prepared 1 mM. […] The fluorescence of 1-NPN was excited at 337 nm and emission spectra were recorded between […]. […] The GraphPad Prism 5 (GraphPad Software, Inc.) was used to estimate the K1−NPN (KD of complex protein /1-NPN) values by nonlinear regression for a unique site of binding. It was assumed that the proteins were 100% active, with a stoichiometry of 1:1 (protein:ligand) at saturation. […] In the equation, [1-NPN] is the free concentration of 1-NPN, and K1−NPN is the dissociation constant of the complex protein /1-NPN.

CpunPBP2 = CpunPBP2 (Conogethes punctiferalis, UniProt A0A1D6X8W8); assay: as above; details: for IC50: 1-NPN 2 μM as fluorescent reporter, 2 μM protein; for binding affinity to CpunPBP2 (in words): ranking among the 24 tested ligands
Protocol: as §1

[1] = pH = 7.4, 1-NPN 2 μM as fluorescent reporter, 2 μM protein, read-out: IC50
[2] = pH = 7.4, calculated from IC50: KD = [IC50]/(1+[1-NPN]/K1-NPN), read-out: KD (μM), calculated dissociation constant
[3] = ratio of fluorescence intensity at the pheromone concentration of 6 mM to the initial fluorescence intensity, pH = 7.4
[4] = read-out: KD (μM), calculated dissociation constant, pH = 7.4, calculated from IC50: KD = [IC50]/(1+[1-NPN]/K1-NPN)
[5] = ratio of fluorescence intensity at the pheromone concentration of 6 mM to the initial fluorescence intensity, pH = 7.4, read-out: Int (%)

Sequence of CpunPBP5 (A0A0M4FIS7 entry or part of it): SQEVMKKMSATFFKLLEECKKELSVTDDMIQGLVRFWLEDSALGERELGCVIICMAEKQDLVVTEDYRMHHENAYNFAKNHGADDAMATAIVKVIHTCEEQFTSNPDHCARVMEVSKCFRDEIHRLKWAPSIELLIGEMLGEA
Sequence of CpunPBP2 (A0A1D6X8W8 entry or part of it): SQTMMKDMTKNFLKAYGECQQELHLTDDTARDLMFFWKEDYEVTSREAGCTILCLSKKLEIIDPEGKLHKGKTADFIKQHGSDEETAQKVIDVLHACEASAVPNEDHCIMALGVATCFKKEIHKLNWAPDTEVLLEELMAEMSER

Compound	IC50 (CpunPBP5; [1]) [µM]	Kd (CpunPBP5; [2]) [µM]	Int (%) (CpunPBP5; [3])	IC50 (CpunPBP2; pH = 7.4, read-out: IC50) [µM]	Kd (CpunPBP2; [2]) [µM]	Int (%) (CpunPBP2; [3])	Kd (CpunPBP5) [µM]	Kd (CpunPBP2; read-out: dissociation constant (KD) of CpunPBP2/1-NPN complex, direct titration of 2 μM protein with 1-NPN, Scatchard plot, pH 7.4) [µM]	IC50 (CpunPBP5) [µM]	activity at 6000 µM (CpunPBP5; pH 7.4, read-out: Int (%)) [%]	binding affinity to CpunPBP5 (in words) (CpunPBP5)	activity at 6000 µM (CpunPBP2; pH 7.4, read-out: Int (%)) [%]	IC50 (CpunPBP2; pH = 7.4) [µM]	binding affinity to CpunPBP2 (in words) (CpunPBP2)	Kd (CpunPBP2; [4]) [µM]	activity at 6000 µM (CpunPBP5; [5]) [%]	activity at 6000 µM (CpunPBP2; [5]) [%]
C=C1CC/C=C(\C)CC[C@@H]2[C@@H]1CC2(C)C (relative stereo) [Trans-caryopyllene]	4.67 ± 0.02	3.78 ± 0.01	45.87 ± 0.10	6.17 ± 0.14	3.58 ± 0.08	50.42 ± 0.51	–	–	–	–	–	–	–	–	–	–	–
c1ccc(Nc2cccc3ccccc23)cc1 [1-NPN, N-phenyl-1-naphthylamine, reference compound]	–	–	–	–	–	–	0.58 ± 0.04	0.76 ± 0.1	–	–	–	–	–	–	–	–	–
CCCCCCCCCCCCCCO [1-tetrodecanol]	–	–	–	–	–	–	2.86 ± 0.02	–	3.53 ± 0.03	42.29 ± 0.12	highest binding affinity	45.55 ± 0.38	3.94 ± 0.14	highest binding affinity	2.28 ± 0.08	–	–
CCC(C)CCCC(C)C (centres unmarked) [2,6-Dimethyloctane]	8.2 ± 0.1	6.64 ± 0.08	–	11 ± 0.32	6.38 ± 0.19	–	–	–	–	–	–	–	–	–	–	54.82 ± 0.07	78.17 ± 0.43
CCCCCCCCCC=O [Decanal]	15.2 ± 0.6	12.5 ± 0.49	–	13.1 ± 0.24	7.62 ± 0.14	–	–	–	–	–	–	–	–	–	–	72.6 ± 0.11	72.86 ± 0.24
CCCCCCC=O [Heptanal]	19.7 ± 0.95	15.9 ± 0.77	–	17.9 ± 0.83	10.4 ± 0.48	–	–	–	–	–	minimum binding abilities	–	–	–	–	68.32 ± 0.21	84.85 ± 0.31
C=C(C)[C@H]1CC=C(C)CC1 [Limonene]	10.7 ± 0.22	8.67 ± 0.18	60.13 ± 0.09	11.9 ± 0.67	6.92 ± 0.39	82.86 ± 0.44	–	–	–	–	–	–	–	–	–	–	–
C=CC(C)(O)CCC=C(C)C (centres unmarked) [Linalool]	–	–	–	–	–	–	13.7 ± 1.15	–	17 ± 1.42	–	minimum binding abilities	–	22 ± 4.72	minimum binding affinities	12.8 ± 2.74	66.92 ± 0.13	72.27 ± 0.43
CCCCCCCCC=O [Nonanal]	13.1 ± 0.62	10.6 ± 0.78	–	14.7 ± 0.47	8.5 ± 0.27	–	–	–	–	–	–	–	–	–	–	65.83 ± 0.28	77.22 ± 0.07
CCCCCCCCCCCCCCCC(=O)O [Palmitic acid]	7.27 ± 0.06	5.89 ± 0.47	–	14.2 ± 0.71	8.27 ± 0.41	–	–	–	–	–	–	–	–	–	–	53.54 ± 0.01	73.64 ± 0.06
CCCCCC/C=C/C=O [Trans-2-nonenal]	9.62 ± 0.58	7.79 ± 0.48	–	22.3 ± 1.3	12.9 ± 0.76	–	–	–	–	–	–	–	–	minimum binding affinities	–	59 ± 0.62	86.46 ± 0.38
CCCCC/C=C/C=O [Trans-2-octanal]	12.2 ± 0.66	9.89 ± 0.53	62.12 ± 0.30	12.3 ± 0.84	7.15 ± 0.49	62.32 ± 0.13	–	–	–	–	–	–	–	–	–	–	–
CCCCCCCCCCC=O [Undecanal]	8.67 ± 0.04	7.01 ± 0.03	–	7.49 ± 0.15	4.34 ± 0.08	–	–	–	–	–	–	–	–	–	–	58.66 ± 0.31	56.59 ± 0.32
COc1cc(C=O)ccc1O [Vanillin]	–	–	–	–	–	–	20.4 ± 2.35	–	25.1 ± 2.9	–	minimum binding abilities	–	19.9 ± 1	–	11.6 ± 0.58	71.19 ± 0.36	85.4 ± 0.31
CC/C=C\CCO [cis-3-hexen-1-ol]	–	–	–	–	–	–	14.9 ± 1.12	–	18.4 ± 1.38	66.81 ± 0.61	minimum binding abilities	89.59 ± 0.25	34.5 ± 3.2	minimum binding affinities	20 ± 1.85	–	–
CC(=O)/C=C/C1C(C)=CCCC1(C)C (stereo not drawn) [α-ionone]	–	–	–	–	–	–	6.79 ± 0.08	–	8.39 ± 0.1	55.28 ± 0.1	–	61.8 ± 1.49	10.7 ± 0.97	–	6.22 ± 0.56	–	–
CC1=CCC2CC1C2(C)C (stereo not drawn) [α-pinene]	–	–	–	–	–	–	11.4 ± 1.02	–	14.1 ± 1.26	–	–	–	27.9 ± 4.3	minimum binding affinities	16.2 ± 2.5	74.88 ± 0.39	77.7 ± 0.33
C=CC(=C)CC/C=C(\C)CCC=C(C)C [β-farnesene]	5.25 ± 0.02	4.25 ± 0.02	47.47 ± 0.12	2.82 ± 0.19	1.63 ± 0.11	40.51 ± 0.78	–	–	–	–	–	–	–	–	–	–	–
CC(=O)/C=C/C1=C(C)CCCC1(C)C [β-ionone]	–	–	–	–	–	–	9.85 ± 0.38	–	12.2 ± 0.47	62.6 ± 0.79	–	88.04 ± 0.58	17.3 ± 0.84	–	10.1 ± 0.49	–	–
C=C1CCC2CC1C2(C)C (stereo not drawn) [β-pinene]	–	–	–	–	–	–	9.3 ± 0.31	–	11.5 ± 0.39	68.43 ± 0.63	–	80.45 ± 0.68	21 ± 2.26	minimum binding affinities	12.2 ± 1.31	–	–
Hexenal	11.7 ± 0.66	9.44 ± 0.53	60.86 ± 0.49	34.56 ± 0.12	20 ± 0.68	83.11 ± 0.15	–	–	–	–	–	–	–	minimum binding affinities	–	–	–
